“Also recorded” adds a separate entry of the source.
Columns and labels:
[1] = system: mouse platelets; assay: Ex vivo platelet assays, mouse platelets in culture (platelet counts, caspase immunoblotting); format: cell-based; settings: ABT-737 1 μM
Procedure: (A) Expression of Bcl-2 family proteins in platelets. […] (C) ABT-737 triggers caspase activation in platelets. […] (F) Absence of Bak protects platelets against ABT-737.
Cell death was induced with ABT-737 (up to 5 μM, Abbott Laboratories (Oltersdorf et al., 2005 (supra)), etoposide (up to 100 μM, Pharmacia) or staurosporine (10 μM, Sigma); 50 μM qVD.OPh (Enzyme Systems) was also added in some experiments. Cell viability was determined by flow cytometry for cells that exclude propidium iodide or manual counting using a hemacytometer.
Other antibodies for immunoblotting were mouse monoclonal anti-Bcl-xL (2H12; BD), anti-Bcl-2 (clone 7; BD), anti-human Bcl-2 (Bcl-2-100), anti-actin (AC40; Sigma), anti-Bax (2D2 and 5B7; Sigma), anti-Mcl-1 (clone 22: BD); rat monoclonal anti-Mcl-1 (14C11; D Huang, unpublished), rabbit polyclonal anti-Bak (B5897: Sigma), anti-Mcl-1 (Rockland), anti-caspase-3 (585; gift of Y. Lazebnik), anti-cleaved p17 fragment of caspase-3 (AB3623; Chemicon), anti-gelsolin (gift of D Kwiatkowski) (Kothakota et al., Science, 278:294-298, 1997); hamster monoclonal anti-mouse Bcl-2 (3F11; BD). Secondary antibodies included HRP-conjugated anti-rat or anti-hamster IgG (SouthernBiotech), anti-mouse or anti-rabbit IgG (Chemicon), and anti-mouse IgG Fcγ chain specific antibody (Jackson ImmunoResearch). The proteins were detected using Enhanced ChemiLuminescence (ECL; GE Healthcare).
Platelets were counted manually in triplicate using a hemacytometer.

[2] = system: human platelet rich plasma; assay: Platelet aggregometry on human platelet rich plasma; format: cell-based
Procedure: Platelet aggregometry performed on human platelet rich plasma (250×10^9/L platelets) pre-incubated for 1 h with 1 μM ABT-737 (green line) or not (red) before stimulation with (A) collagen (4 μg/ml) or (B) ADP (10 μM).
Whole blood was collected in sodium citrate (3.2%) and platelet rich plasma obtained by centrifugation at 800 rpm for 12 min at room temperature. Platelet poor plasma was then obtained by centrifugation of remaining blood at 3,000 rpm for 15 min at room temperature. Platelet count was adjusted to 250×10^9/L using platelet poor plasma. Diluted platelet rich plasma was placed in an aggregometer cuvette warmed to 37° C. and stirred whilst light transmission through the plasma was measured in a 4 channel platelet aggregometer. After baseline measurements were obtained, ADP or Collagen (both from Edward Keller) was added to induce aggregation.

[3] = system: reticulated platelets; assay: Reticulated platelet labeling (thiazole orange) after ABT-737; format: in vivo, mouse; settings: thiazole orange staining after a single dose
Procedure: (§1) Animals were bled 2-24 h afterwards and platelet counts determined. […] (B) Platelet recovery after a single dose of ABT-737. Platelet counts (blue symbols; left axis) were determined 2-96 h after a single dose of ABT-737 (red arrow). […] Orange symbols represent serum TPO levels (right axis). (C) Cyclical acute thrombocytopaenia triggered by ABT-737. Platelet counts were determined before and 8 h after a single dose of ABT-737 (red arrows) given at weekly intervals. […] During recovery, baseline counts drifted upwards. (D) ABT-737 acts selectively on aged platelets. […] (E) Synchronizing platelets. […] During recovery, the newly synthesized younger platelets are larger as indicated by the increased mean platelet volume (blue symbols; right axis). (F) Young platelets are resistant to ABT-737. Wild type C57BL/6 mice were treated with APS, and then injected with ABT-737 (red arrows) either 2 or 7 days afterwards. Absolute platelet counts and the % of reticulated platelets were measured. The top panels show representative flow cytometric profiles following thiazole orange staining before or after ABT-737 injections. The bottom panels show platelet counts prior to or 2 h post ABT-737 injection. Data in (B), (C), (E) and (F) represent means±SD of 3-6 mice at each time point.
Staining of reticulated platelets was performed using thiazole orange. […]

[4] = system: serum TPO levels; assay: Thrombopoietin analysis (serum TPO ELISA) in ABT-737 treated mice; format: in vivo, mouse; settings: after ABT-737
Procedure: as §1, with “The top panels show representative flow cytometric profiles following thiazole orange staining before or after ABT-737 injections. The bottom panels show platelet counts prior to or 2 h post ABT-737 injection. Data in (B), (C), (E) and (F) represent means±SD of 3-6 mice at each time point.” left out
Blood was collected from the retroorbital sinus using a non-heparinized capillary tube into an eppendorf tube and incubated at room temperature for 2 h. […] Thrombopoietin levels were measured by enzyme-linked immunosorbent assay (ELISA) using the Quantikine Mouse TPO Immunoassay kit (R&D Systems) according to the manufacturer's instructions.

[5] = system: megakaryocytes; settings: mouse, in vivo
Procedure: The hematocrit, platelet and white cell count, and differential were determined by using either manual or automated (Advia 120) counting techniques. In most experiments, with the exception of data shown in FIGS. 1A and 6E, the data was collected from male mice. Clonal cultures of 2.5×10^4 adult bone marrow cells or 5×10^4 spleen cells in 1 mL of 0.3% agar in DMEM supplemented with newborn calf serum (20%) were stimulated with a mixture of 100 ng/mL murine stem cell factor, 10 ng/mL murine IL-3, 4 units/mL human EPO and incubated for 7 days at 37° C. in a fully humidified atmosphere of 10% CO2 in air. Agar cultures were fixed, sequentially stained for acetylcholinesterase, Luxol fast blue and hematoxylin; the cellular composition of each colony determined at ×100-400 magnification. Megakaryocyte counts were performed by manual counting from sections of sternum and spleen after staining with hematoxylin/eosin. A minimum of 10 high-power fields (×200) were scored.

[6] = system: tumor cell lines derived from small cell lung cancers or lymphomas; settings: small cell lung cancer or lymphoma derived lines; Oltersdorf et al., 2005; cited from earlier work
[7] = system: Bcl-2, Bcl-xL, Bcl-w, Mcl-1, A1; settings: Oltersdorf et al., 2005; van Delft et al., 2006; cited from earlier work

CN(C)CC[C@H](CSc1ccccc1)Nc1ccc(S(=O)(=O)NC(=O)c2ccc(N3CCN(Cc4ccccc4-c4ccc(Cl)cc4)CC3)cc2)cc1[N+](=O)[O-] [ABT-737]
loss of wild type platelets in culture ([1]; counted after 1 h): Bak-mediated caspase-dependent loss of platelets
caspase-3 activation and gelsolin cleavage in cultured platelets ([1]; immunoblotting): triggered cleavage and full activation of caspase-3 as well as cleavage of gelsolin; also recorded: induced complete caspase-3 activation and gelsolin cleavage
action of ABT-737 on viability of Bak^-/- platelets in culture ([1]; Bak^-/- vs wild type platelets, 1 h): markedly blunted
responses to other agonists (Epinephrine, Arachidonic Acid, Ristocetin) ([2]; 1 μM ABT-737 (data not shown)): did not alter responses
platelet activation / aggregation in response to collagen or ADP ([2]; pre-incubated 1 h with 1 μM ABT-737, collagen 4 μg/ml or ADP 10 μM): did not trigger platelet activation or adversely impact upon the ability of platelets to aggregate; also recorded: did not induce platelet aggregation or affect that with agonists
proportion of reticulated platelets post ABT-737 [3]: transient increase; also recorded: increased proportion
TPO levels in ABT-737 treated mice [4]: sustained production; also recorded: normal, or probably even elevated
megakaryocytopoiesis in ABT-737 treated mice [5]: normal, or probably even elevated
efficacy against tumor cell lines [6]: single agent efficacy
selectivity among pro-survival Bcl-2 family proteins [7]: selectively targets Bcl-2, Bcl-xL and Bcl-w but not the other pro-survival proteins Mcl-1 or A1

Source: US20100292200A1, “Methods for Modulating Apoptosis in Platelets” (The Walter and Eliza Hall Institute of Medical Research, priority 2006, published 2010)
